In US20250268829A1, “INHALED ANTIBACTERIAL FORMULATIONS FOR TREATING LUNG INFECTIONS” (Board of Regents, The University of Texas System, priority 2022, published 2025):
≈ marks a conversion by molar mass, not a printed value.

Tests used:
S. maltophilia [1] = test: Minimum inhibitory concentration, OD 600; type: cell-based, Stenotrophomonas maltophilia
Description: (§1) Stenotrophomonas maltophilia was obtained from American Type Culture Collection (ATCC, Manassas, VA) (ATCC 13637). S. maltophilia dried pellet was reconstituted in nutrient broth and frozen until further use. An inoculation loop was used to collect S. maltophilia from the stock solution and was streaked onto nutrient agar plates. The plates were incubated at 37° C. for 24 hours. At the 24-hour point, an inoculation loop was used to transfer bacteria from the plate to 5 mL of liquid nutrient broth. The bacteria in the liquid medium were left overnight on a shaker at 37° C.
Liquid bacterial culture was prepared as described above. 200 μL of the overnight liquid culture was added to 96 well plates. Varying concentrations of TIG were added to the 96 well plates ranging from 0.12 μg/mL to 64 μg/mL. All TIG concentrations were tested in triplicate. The well plate was allowed to incubate at 37° C. for 24 hours, and the MIC was determined using the OD 600 values.

S. maltophilia [2] = conditions: cited from earlier work
Mycobacterium abscessus = test: In vitro efficacy (MIC) against Mycobacterium abscessus; type: cell-based; conditions: Mycobacteroides abscessus, Mab in Middlebrook 7H9 broth; read-out: minimal inhibitory concentration (MIC)
Description: Mab was cultured in Middlebrook 7H9 liquid broth for 48 hours. 100 μL of inoculum was then added to 96 well plate with 50 μL of different concentrations of Tigecycline (0.1 to 240 μg/mL) (FIG. 3).

Calu-3 cells = test: Cell viability, MTT assay; type: cell-based
Description: Calu-3 cells between passage 14-17 were grown in Dulbecco's Modified Eagle Medium (DMEM)+10% Fetal Bovine Serum (FBS)+1% Non-Essential Amino Acids (NEAA)+1% Penicillin Streptomycin (PS)+1% Sodium pyruvate in a 75 cm^2 flask. The media was changed every other day.
To assess the toxicity of the tigecycline powders, Calu-3 cells were seeded into 96-well tissue culture plates at a seeding density of 9000 cells/well. The cells were cultured overnight in media. […] The powders were dissolved in media and 100 μL of each concentration was added to the wells. Control wells containing only media were also set up. […] […] At 3 hours, MTT reagent/culture media was removed and 150 μl of MTT dissolving solvent was added to the well. The well-plate was wrapped in foil and kept on an electronic shaker for 15 minutes. The absorbance was then read at 590 nm using the Tecan microplate reader (Tecan Global Headquarters, Männedorf, Switzerland).

[3] = HPLC stability upon aerosolization and storage; type: physicochemical; conditions: capsule (before aerosolization) and NGI stage 4 (after aerosolization) samples
Description: Stability upon aerosolization was assessed using High-Performance Liquid Chromatography (HPLC) by the method described by Lucelia Magalhaes da Silva and Herida Regina Nunes Salgado in Validation of a Stability-Indicating RP-LC Method for the Determination of Tigecycline in Lyophilized Powder, J. Chromatogr. Sci. 51:192-199 (2012). The powder accumulated on Stage 4 (after aerosolization), as well as the capsule (before aerosolization) after running the NGI, was dissolved in a buffer containing 0.015 M oxalic acid and 0.015 M sodium phosphate monobasic at pH 7. The mobile phase used was 75 (0.015 M oxalic acid and 0.015 M sodium phosphate monobasic at pH 7): 25 (Acetonitrile). The flow rate was kept at 1 mL/min and UV absorbance was measured at 245 nm. A forcefully degraded sample (tigecycline left in water for 1 week at RT without protection from light) was also incorporated as a control to assess the ability of the method to detect degradants.
The milled powder was stored for 30 days at 25° C./60% RH and 45° C./75% RH, as specified by the International Council for Harmonization (ICH) intermediate and accelerated stability conditions using sealed amber vials. At the 30-day and 6 month time point, the powder was characterized for its physicochemical properties, stability, and aerosol performance. […]

Calu-3 cell monolayer = test: Drug permeability across air-liquid interface monolayer; type: in vitro ADME
Description: Calu-3 cells were plated at a cell density of 33,000 cells/well in 24-well transwell inserts on the apical side and 500 μL media was added to the basolateral side. 48 hours after plating the cells, the cells were airlifted (i.e the media from the apical and basolateral side was aspirated and only the basolateral side was replaced with media).
Cell integrity of the Calu-3 monolayer was measured every other day after airlifting. Briefly, the media from the basolateral side was aspirated. 200 μL of Hank's balanced salt solution (HBSS) buffer was added to the apical side and 500 μL of HBSS was added to the basolateral side. The transepithelial electrical resistance (TEER) was measured using an epithelial Voltohmmeter. The short electrode was dipped into the buffer on the apical side and the longer electrode was dipped into the buffer on the basolateral side. Using the measured value the TEER was calculated using equation (2): […]
The permeation experiments were carried out between days 5-7 after airlifting when the TEER values were ˜700Ω which indicates epithelial cell integrity and the absence of a leaky monolayer. The amount of drug transported across the cell layer were measured as follows: Milled and unmilled powders of tigecycline were dissolved in 200 μL of HBSS at a concentration of 10 μM and 20 μM. The media in the basolateral side was replaced by HBSS. 10 μL sample was collected from the basolateral side at the following intervals: 5 min, 15 min, 30 min, 45 min, 60 min, 2 hours, 4 hours, 6 hours, 8 hours, 12 hours, and 24 hours. After each aliquot, 10 μL of HBSS buffer was replaced into the basolateral chamber. This procedure was repeated to measure the permeability from the basolateral side to the apical side where samples were aliquoted from the apical side. The apparent permeability can be calculated as follows:
[formula] • Where • dQ/dt=Concentration flux • A=Surface area • Co=initial concentration

S. maltophilia biofilm = test: Biofilm eradication (MBEC), XTT assay; type: cell-based, Stenotrophomonas maltophilia
Description: as §1
S. maltophilia was grown as described above. 200 μL of the bacteria in nutrient broth was added onto 96 well plates for varying amounts of time ranging from 1 day to 5 days. The bacterial biomass at each time point was assessed using crystal violet assay. Briefly, the liquid media was aspirated at each time point, and the wells were washed twice with 200 μL of phosphate-buffered saline (PBS). […] The bound dye was then solubilized in 33% v/v acetic acid, and the absorbance was measured at 595 nm. […]
200 μL of this standardized culture was added to 96 well plates and allowed to grow overnight at 37° C. […] At 24 hours, the viability of the bacteria was evaluated using the XTT assay. […] After 3 hours, the absorbance was measured at 490 nm.

Structure (SMILES): CN(C)c1cc(NC(=O)CNC(C)(C)C)c(O)c2c1C[C@H]1C[C@H]3[C@H](N(C)C)C(O)=C(C(N)=O)C(=O)[C@@]3(O)C(O)=C1C2=O [Tigecycline, tigecycline]
- inhibition of growth of S. maltophilia (S. maltophilia [1]; 0.1 μg/mL and 0.25 μg/mL): failed to inhibit bacterial growth
- OD 600 value normalized to control (S. maltophilia [1]; 0.12 and 0.25 μg/mL): ~1
- MIC (S. maltophilia [1]; Stenotrophomonas maltophilia, 24 hours, OD 600, read-out: Minimum Inhibitory Concentrations (MIC)): 0.5 µg/mL (≈ 0.854 µM)
- OD 600 values versus control (S. maltophilia [1]; concentrations >0.5 μg/mL): significantly lower than that of control
- inhibition of growth of S. maltophilia (S. maltophilia [1]; concentrations equal to or greater than 0.5 μg/mL): completely
- susceptibility of S. maltophilia (S. maltophilia [2]): more than 90%
- MIC (Mycobacterium abscessus): > 4 µg/mL
- effect on Calu-3 cell viability (Calu-3 cells; 5 mM and 7.5 mM, 4-hour and 8-hour point): significant cell death
- concentration up to which Calu-3 cells were viable (Calu-3 cells; 4-hour and 8-hour point, submerged culture): 2500 µM
- maximum concentration that allowed the cells to maintain their viability (Calu-3 cells; 12-hour point): 125 µM
- maximum concentration that allowed the cells to maintain their viability (Calu-3 cells; 24 hours): 25 µM
- degradation peaks in HPLC chromatograms [3]: none of the degradation peaks were observed
- tigecycline permeated through the cell monolayer (Calu-3 cell monolayer; apical to basolateral, across a 12-hour time point, HPLC limit of detection 1 μM): less than 1 μM
- drug remaining in the apical (donor) side (Calu-3 cell monolayer; at the end of the experiment): ~100%
- permeability across the cell monolayer (Calu-3 cell monolayer; basolateral to apical direction): impermeability
- inhibition of biofilm formation (S. maltophilia biofilm; concentrations above 0.5 μM, 24 hours): ~85%
- inhibition of S. maltophilia biofilm formation (S. maltophilia biofilm; concentrations lower than 0.5 μM): could not effectively inhibit
